The source of these data is US9211278B2, “Composition containing arylnaphthalene lignan derivative for preventing and/or treating dementia” (KOREA INSTITUTE OF SCIENCE AND TECHNOLOGY, priority 2012, dated 2015).

Data set [1] relates to O-glycosylated maAPP. As to the kind of experiment: APP O-glycosylation, O-glycosylation antibody then APP Western blotting. The data set is classed as cell-based, human. The note with it: 1, 5, 10 uM, 4 hrs. The method, then:
According to the same method as above, HeLa cell line was treated with 1, 5, 10 uM of Justicidin A for 4 hrs. Then, the 5 ul of O-glycosylation antibody (#MMS-248R, Covance) was added to 500 ug of the separated plasma membrane protein, and performed by electrophoresis and the western blotting using the APP antibody (1:2000 diluted, A8717, Sigma).

Data set [2] relates to beta-amyloid (Aβ40, Aβ42) formation. As to the kind of experiment: Beta-amyloid (Aβ40, Aβ42) formation, ELISA, in APP-transfected HeLa cells. The data set is classed as cell-based, human. The note with it: HeLa-APP cells, various concentrations (FIGS. 1, 2, 6). How it is done:
To test the inhibitory effect of Justicidin A (C1) obtained in Example 2 on the beta-amyloid formation, HeLa cell line transfected with the amyloid precursor protein (APP) driven from human was cultured in DMEM solution (Cat. #11995, Gibco, USA) for use. The cell line was received from Prof. Tae-Wan Kim at Department of Pathology, Columbia University Medical Center, New York, N.Y. 10032, USA.
Specifically, the Justicidin A of Example 2 was added into the cell line culture at the amount indicated in FIG. 1, and then the produced amount of be-amyloid (Aβ40, Aβ42 was measured. Human β-Amyloid[1-40](Aβ40), Human β-Amyloid [1-42](Aβ42) Colorimetric ELISA kit (#KHB3482 and #KHB3442; BioSource International, Inc., U.S.A.) were used to quantify two types of beta-amyloid (Aβ40, Aβ42).
The 5-methoxyJusticidin A (C2) of Example 2 was added into the cell line culture at the amount indicated in FIG. 2, and then the produced amount of be-amyloid was measured according to the method of Example 1.1. The group which was not treated with 5-methoxyjusticidin A was used as a negative control.
The compounds were used at the amount of FIG. 6, and measured for the beta-amyloid (Aβ40, Aβ42) formation according to the same method of Experimental Example <1-1>. The group treated with Justicidin A(C1) was a positive control and the group with no treatment was a negative control.

In data set [3] the target is T1, Aβ42 (Homo sapiens, UniProt P05067).
T1 construct: Aβ42 of 42 amino acids
T1 sequence (P05067 672-713 limits assumed): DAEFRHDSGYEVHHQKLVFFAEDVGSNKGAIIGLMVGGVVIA
As to the kind of experiment: Aβ fibril formation, Thioflavin T (ThT) fluorescence assay. The data set is classed as biochemical. The method, then:
Fibril formation by concentrated Aβ is Alzheimer's representative symptom and has been focused on recently. The concentrated Aβ was measured by Thioflavin T (ThT) fluorescence assay, as chemical process was artificially generated.
For formation of Aβ fibril, Aβ42 was melt in 1,1,1,3,3,3-hexafluoro-2-propanol (HFIP) up to 1 mg/ml, then injected to 96-well plate, the concentration of Aβ42 was 10 uM each well, HFIP was evaporated shortly before the beginning of the experiment. Various concentrations of Justicidin A and a certain amount of 5 uM ThT were added, and Fluorescence intensity was measured at various times by Tecan infinite M1000 microplate reader (Tecan, Switzerland).

Data set [4] has as its system male ICR mouse. The data set is described as follows: Morris water maze test, scopolamine-impaired memory model. The data set is classed as in vivo. The note with it: oral, 1, 5, 10 and 20 mg/kg, compared to scopolamine group. How it is done:
The male ICR mouse was 5 to 6-week age (25-30 g of body weight) (Orientbio Inc., Seougnam, Republic of Korea), and was raised with solid feed and tap water for 1 week before being used for test. At a first day, the normal control group and the group administered by the scopolamine were fed with 5% (v/v) DMSO-saline, the test group was orally administered by 1, 5, 10 and 20 mg/kg/10 ml of Justicidin A (C1) in 5% DMSO-Saline, and the comparative group was administered with 2 mg/kg/10 ml of Donepezil (brand name: Aricept, Eisai) being commercially available as a drug for treating an dementia of the Alzheimer's type. […]
The same test was performed repetitively twice per a day for 4 days as an Acquisition Test, and the entire test was automatically recorded and analyzed with Noldus Ethovision 7.0 program (Noldus Information Technology, USA).
In addition, after finishing the Acquisition Test performed for four (4) days, the Probe test was carried out at fifth day. […] The whole test procedure was automatically recorded and analyzed with Noldus Ethovision 7.0 program (Noldus Information Technology, USA).

Data set [5] concerns transferrin endocytosis. As to the kind of experiment: Transferrin endocytosis (confocal microscopy). The data set is classed as cell-based, human. The note with it: 1 uM, 10, 30, 60 min at 37° C. The method, then:
The reduced endocytosis rate may be caused by total reduction of endocytosis other than the specific reduction of APP endocytosis rate, because many proteins other than APP can be modified to include the O-glycosylation and the like, by Justicidin A. Thus, the effect of Justicidin A to transferrin, internalized by clathrin-dependent endocytosis like APP was measured, in order to identify selectivity of reducing of APP endocytosis rate by O-glycosylation.
5×10^5 cells of HeLa cell line transfected with amyloid precursor protein (APP) same as above, incubated for 24 hrs, 1 uM Justicidin A treated at 4° C. for 45 min. Then, transferrin was fluorescent-labeled by treating Alexa Fluor 488 conjugated transferrin (25 ug/ml concentration, #T13342, Invitrogen). Transferrin endocytosis was progressed depending on the incubation time 10, 30, 60 min at 37° C., then remained transferrin was washed out by treating pH 5.5 buffer (0.1M sodium acetate, 0.05M NaCl) to cell surface for 5 min
Intracellular location of transferrin was measured by confocal microscopy (LSM510, Zeiss, Germany) at 488 nm.

The subject of data set [6] is HeLa cell line transfected with the amyloid precursor protein (APP). As to the kind of experiment: MTT cell proliferation assay (cell death). The data set is classed as cell-based. The note with it: 5 μg/ml, 8 hours. How it is done: To test the effect of Justicidin A and 5-methoxyJusticidin A on cell death, the MTT Cell Proliferation assay method (ATCC catalog #30-1010K, Manassas, USA) was used. Specifically, the HeLa cell line transfected with the amyloid precursor protein (APP) driven from human was treated with various concentrations of Justicidin A (S62-C1) or 5-methoxyJusticitdin A (S62-C2) for 8 hours, and the viable cells were quantified to show the result in FIG. 3.

Where only a bound is given, the exact number is not on record here.

For the compound `COc1cc2c(OC)c3c(c(-c4ccc5c(c4)OCO5)c2cc1OC)C(=O)OC3` [Justicidin A], in data set [1], the “O-glycosylated maAPP” value is recorded as “the O-glycosylated maAPP was increased”. In data set [2], the “inhibition of beta-amyloid (Aβ40, Aβ42) formation” value is given as “inhibited the beta-amyloid (Aβ40, Aβ42) formation at a concentration-dependent manner”. In addition, the inhibition at 5 µM in data set [3] (5 uM, read-out: inhibition of formation of Aβ fibril compared to the control group) came out at 52%. Besides, the “inhibition of formation of Aβ fibril” value in data set [3] (various concentrations, up to 36 hrs) is recorded as “inhibited the formation of Aβ fibril in a concentration-dependent manner”. The “memory and learning ability (acquisition and probe test)” value in data set [4] is “equivalent or higher memory and learning ability”. For the same compound, the transferrin endocytosis entry in data set [5] was “no effect of Justicidin A to transferrin endocytosis”. Moreover, in data set [6], the cell lines died was not above 20%.
